Test results as given in patent US20220081387A1, “METHODS FOR PREPARING AMMONIUM TETRATHIOMOLYBDATE” (Alexion Pharmaceuticals, Inc., priority 2019, published 2022).

Assays:
[1] = ATTM solubility in sample solution (HPLC), methanol, ethanol and purified water; type: physicochemical; details: ethanol, purified water
Description: The ATTM solubility was measured in sample solution (HPLC), methanol, ethanol and purified water.

[2] = Long-term stability study of ATTM samples, determined by HPLC; type: physicochemical
Description: ATTM Samples 1 and 2 were prepared essentially according to procedure in Example 1 starting with 12 kg of ammonium heptamolybdate. The isolated product was packed and stored immediately. Specifically, the samples were packaged corresponding to the packaging of the bulk material under argon in transparent anti-static polyethylene plastic bags, 90 10 10, 110 mm×170 mm, and the bags containing the samples were sealed with a plastic tie, and then subsequently packed in welded aluminium bags along with a drying agent in-between the two bags. Additional samples were packaged with ambient atmosphere in transparent anti-static polyethylene plastic bags, 90 10 10, 110 mm×170 mm. The bags containing the samples were sealed with a plastic tie, and then subsequently packed in welded aluminium bags along with a drying agent in-between the two bags.

## [NH4+].[NH4+].[SH-].[SH-].[S]=[Mo]=[S] [ATTM, Ammonium tetrathiomolybdate]
[1]
  ATTM solubility: lowest in alcohols, particularly in ethanol, and higher in water
[2]; after 6 months, by HPLC
  degradation of ATTM on storage: no significant degradation

## [NH4+].[NH4+].[SH-].[SH-].[S]=[Mo]=[S] [Sample 1, ammonium tetrathiomolybdate]
[2]; 5 °C, Air, 3 mo
  (NH4)6Mo7O24: <0.05 w/w %
  ATTM: 99.2 w/w %
  Dimer S6: <0.05 w/w %
  TM1: <0.05 w/w %
  TM2: <0.05 w/w %
  TM3: 0.93 w/w %
[2]; 5 °C, Air, 6 mo
  (NH4)6Mo7O24: <0.05 w/w %
  ATTM: 98.6 w/w %
  Dimer S6: <0.05 w/w %
  Insoluble materials: <0.1 w/w %
  TM1: <0.05 w/w %
  TM2: <0.05 w/w %
  TM3: 0.94 w/w %
[2]; 5 °C, Air, Initial
  (NH4)6Mo7O24: <0.05 w/w %
  ATTM: 98.8 w/w %
  Dimer S6: <0.05 w/w %
  Insoluble materials: <0.1 w/w %
  TM1: <0.05 w/w %
  TM2: <0.05 w/w %
  TM3: 0.77 w/w %
[2]; 5 °C, Ar, 3 mo
  (NH4)6Mo7O24: <0.05 w/w %
  ATTM: 99.1 w/w %
  Dimer S6: <0.05 w/w %
  TM1: <0.05 w/w %
  TM2: <0.05 w/w %
  TM3: 0.96 w/w %
[2]; 5 °C, Ar, 6 mo
  (NH4)6Mo7O24: <0.05 w/w %
  ATTM: 99.0 w/w %
  Dimer S6: <0.05 w/w %
  Insoluble materials: <0.1 w/w %
  TM1: <0.05 w/w %
  TM2: <0.05 w/w %
  TM3: 0.97 w/w %
[2]; 5 °C, Ar, Initial
  (NH4)6Mo7O24: <0.05 w/w %
  ATTM: 98.8 w/w %
  Dimer S6: <0.05 w/w %
  Insoluble materials: <0.1 w/w %
  TM1: <0.05 w/w %
  TM2: <0.05 w/w %
  TM3: 0.77 w/w %
[2]; −20 °C, Air, 3 mo
  (NH4)6Mo7O24: <0.05 w/w %
  ATTM: 99.3 w/w %
  Dimer S6: <0.05 w/w %
  TM1: <0.05 w/w %
  TM2: <0.05 w/w %
  TM3: 0.93 w/w %
[2]; −20 °C, Air, 6 mo
  (NH4)6Mo7O24: <0.05 w/w %
  ATTM: 99.0 w/w %
  Dimer S6: <0.05 w/w %
  Insoluble materials: <0.1 w/w %
  TM1: <0.05 w/w %
  TM2: <0.05 w/w %
  TM3: 0.82 w/w %
[2]; −20 °C, Air, Initial
  (NH4)6Mo7O24: <0.05 w/w %
  ATTM: 98.8 w/w %
  Dimer S6: <0.05 w/w %
  Insoluble materials: <0.1 w/w %
  TM1: <0.05 w/w %
  TM2: <0.05 w/w %
  TM3: 0.77 w/w %
[2]; −20 °C, Ar, 3 mo
  (NH4)6Mo7O24: <0.05 w/w %
  ATTM: 99.5 w/w %
  Dimer S6: <0.05 w/w %
  TM1: <0.05 w/w %
  TM2: <0.05 w/w %
  TM3: 1.05 w/w %
[2]; −20 °C, Ar, 6 mo
  (NH4)6Mo7O24: <0.05 w/w %
  ATTM: 99.1 w/w %
  Dimer S6: <0.05 w/w %
  Insoluble materials: <0.1 w/w %
  TM1: <0.05 w/w %
  TM2: <0.05 w/w %
  TM3: 0.88 w/w %
[2]; −20 °C, Ar, Initial
  (NH4)6Mo7O24: <0.05 w/w %
  ATTM: 98.8 w/w %
  Dimer S6: <0.05 w/w %
  Insoluble materials: <0.1 w/w %
  TM1: <0.05 w/w %
  TM2: <0.05 w/w %
  TM3: 0.77 w/w %

## [NH4+].[NH4+].[SH-].[SH-].[S]=[Mo]=[S] [Sample 2, ammonium tetrathiomolybdate]
[2]; 5 °C, Air, 3 mo
  (NH4)6Mo7O24: <0.05 w/w %
  ATTM: 98.6 w/w %
  Dimer S6: <0.05 w/w %
  TM1: <0.05 w/w %
  TM2: <0.05 w/w %
  TM3: 1.13 w/w %
[2]; 5 °C, Air, 6 mo
  (NH4)6Mo7O24: <0.05 w/w %
  ATTM: 97.9 w/w %
  Dimer S6: <0.05 w/w %
  Insoluble materials: <0.1 w/w %
  TM1: <0.05 w/w %
  TM2: <0.05 w/w %
  TM3: 0.95 w/w %
[2]; 5 °C, Air, Initial
  (NH4)6Mo7O24: <0.05 w/w %
  ATTM: 98.8 w/w %
  Dimer S6: <0.05 w/w %
  Insoluble materials: <0.1 w/w %
  TM1: <0.05 w/w %
  TM2: <0.05 w/w %
  TM3: 1.01 w/w %
[2]; 5 °C, Ar, 3 mo
  (NH4)6Mo7O24: <0.05 w/w %
  ATTM: 99.0 w/w %
  Dimer S6: <0.05 w/w %
  TM1: <0.05 w/w %
  TM2: <0.05 w/w %
  TM3: 0.99 w/w %
[2]; 5 °C, Ar, 6 mo
  (NH4)6Mo7O24: <0.05 w/w %
  ATTM: 98.2 w/w %
  Dimer S6: <0.05 w/w %
  Insoluble materials: <0.1 w/w %
  TM1: <0.05 w/w %
  TM2: <0.05 w/w %
  TM3: 1.03 w/w %
[2]; 5 °C, Ar, Initial
  (NH4)6Mo7O24: <0.05 w/w %
  ATTM: 98.8 w/w %
  Dimer S6: <0.05 w/w %
  Insoluble materials: <0.1 w/w %
  TM1: <0.05 w/w %
  TM2: <0.05 w/w %
  TM3: 1.01 w/w %
[2]; −20 °C, Air, 3 mo
  (NH4)6Mo7O24: <0.05 w/w %
  ATTM: 99.4 w/w %
  Dimer S6: <0.05 w/w %
  TM1: <0.05 w/w %
  TM2: <0.05 w/w %
  TM3: 0.92 w/w %
[2]; −20 °C, Air, 6 mo
  (NH4)6Mo7O24: <0.05 w/w %
  ATTM: 98.2 w/w %
  Dimer S6: <0.05 w/w %
  Insoluble materials: <0.1 w/w %
  TM1: <0.05 w/w %
  TM2: <0.05 w/w %
  TM3: 1.13 w/w %
[2]; −20 °C, Air, Initial
  (NH4)6Mo7O24: <0.05 w/w %
  ATTM: 98.8 w/w %
  Dimer S6: <0.05 w/w %
  Insoluble materials: <0.1 w/w %
  TM1: <0.05 w/w %
  TM2: <0.05 w/w %
  TM3: 1.01 w/w %
[2]; −20 °C, Ar, 3 mo
  (NH4)6Mo7O24: <0.05 w/w %
  ATTM: 99.1 w/w %
  Dimer S6: <0.05 w/w %
  TM1: <0.05 w/w %
  TM2: <0.05 w/w %
  TM3: 1.07 w/w %
[2]; −20 °C, Ar, 6 mo
  (NH4)6Mo7O24: <0.05 w/w %
  ATTM: 98.2 w/w %
  Dimer S6: <0.05 w/w %
  Insoluble materials: <0.1 w/w %
  TM1: <0.05 w/w %
  TM2: <0.05 w/w %
  TM3: 0.98 w/w %
[2]; −20 °C, Ar, Initial
  (NH4)6Mo7O24: <0.05 w/w %
  ATTM: 98.8 w/w %
  Dimer S6: <0.05 w/w %
  Insoluble materials: <0.1 w/w %
  TM1: <0.05 w/w %
  TM2: <0.05 w/w %
  TM3: 1.01 w/w %
